Measured values from ChEMBL document CHEMBL6120936, “Autophagy modulation in cancer therapy: Challenges coexist with opportunities” (Eur J Med Chem, 2024).

Assays:
[1] = biological target: Mitogen-activated protein kinase 3 (Homo sapiens, UniProt P27361); test: Inhibition of ERK1 (unknown origin)
[2] = Agonist activity at AMPK (unknown origin); design: species or system Homo sapiens
[3] = biological target: T1, Serine/threonine-protein kinase ULK2 (Homo sapiens, UniProt Q8IYT8); test: Inhibition of ULK2 (unknown origin)
T1 sequence (Q8IYT8 whole entry): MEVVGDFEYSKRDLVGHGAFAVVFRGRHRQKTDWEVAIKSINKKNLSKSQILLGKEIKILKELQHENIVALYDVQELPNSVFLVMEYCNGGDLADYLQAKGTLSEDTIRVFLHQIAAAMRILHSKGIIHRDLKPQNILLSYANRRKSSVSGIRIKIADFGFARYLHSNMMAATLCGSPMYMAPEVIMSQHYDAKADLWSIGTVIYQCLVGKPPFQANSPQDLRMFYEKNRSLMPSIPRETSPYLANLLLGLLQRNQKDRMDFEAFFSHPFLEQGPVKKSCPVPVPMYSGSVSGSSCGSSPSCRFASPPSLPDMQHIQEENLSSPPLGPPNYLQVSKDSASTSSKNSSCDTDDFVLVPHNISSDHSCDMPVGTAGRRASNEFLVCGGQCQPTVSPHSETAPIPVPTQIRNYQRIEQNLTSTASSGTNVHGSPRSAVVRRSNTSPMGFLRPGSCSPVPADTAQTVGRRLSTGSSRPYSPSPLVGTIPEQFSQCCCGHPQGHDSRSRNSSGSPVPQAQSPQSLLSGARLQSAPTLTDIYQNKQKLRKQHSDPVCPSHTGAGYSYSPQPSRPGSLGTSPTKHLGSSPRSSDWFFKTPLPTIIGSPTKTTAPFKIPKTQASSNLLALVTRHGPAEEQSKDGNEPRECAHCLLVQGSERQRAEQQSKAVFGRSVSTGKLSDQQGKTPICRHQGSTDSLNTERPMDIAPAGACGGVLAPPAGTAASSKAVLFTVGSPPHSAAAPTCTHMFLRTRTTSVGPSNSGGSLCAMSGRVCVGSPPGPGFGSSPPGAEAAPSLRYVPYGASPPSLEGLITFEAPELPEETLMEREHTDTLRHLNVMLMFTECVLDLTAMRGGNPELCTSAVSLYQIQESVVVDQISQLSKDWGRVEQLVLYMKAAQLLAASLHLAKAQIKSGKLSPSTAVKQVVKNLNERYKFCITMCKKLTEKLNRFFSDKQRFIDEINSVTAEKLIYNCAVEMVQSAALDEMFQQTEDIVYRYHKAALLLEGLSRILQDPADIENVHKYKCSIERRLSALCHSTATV

[4] = biological target: Phosphatidylinositol 4,5-bisphosphate 3-kinase catalytic subunit alpha isoform (Homo sapiens, UniProt P42336); test: Inhibition of PI3K-p110alpha (unknown origin) extracted from baculovirus-infected Sf9 cells incubated for 1 hr by microbeta counter analysis
Phosphatidylinositol 4,5-bisphosphate 3-kinase catalytic subunit alpha isoform, sequence (P42336 whole entry, canonical isoform): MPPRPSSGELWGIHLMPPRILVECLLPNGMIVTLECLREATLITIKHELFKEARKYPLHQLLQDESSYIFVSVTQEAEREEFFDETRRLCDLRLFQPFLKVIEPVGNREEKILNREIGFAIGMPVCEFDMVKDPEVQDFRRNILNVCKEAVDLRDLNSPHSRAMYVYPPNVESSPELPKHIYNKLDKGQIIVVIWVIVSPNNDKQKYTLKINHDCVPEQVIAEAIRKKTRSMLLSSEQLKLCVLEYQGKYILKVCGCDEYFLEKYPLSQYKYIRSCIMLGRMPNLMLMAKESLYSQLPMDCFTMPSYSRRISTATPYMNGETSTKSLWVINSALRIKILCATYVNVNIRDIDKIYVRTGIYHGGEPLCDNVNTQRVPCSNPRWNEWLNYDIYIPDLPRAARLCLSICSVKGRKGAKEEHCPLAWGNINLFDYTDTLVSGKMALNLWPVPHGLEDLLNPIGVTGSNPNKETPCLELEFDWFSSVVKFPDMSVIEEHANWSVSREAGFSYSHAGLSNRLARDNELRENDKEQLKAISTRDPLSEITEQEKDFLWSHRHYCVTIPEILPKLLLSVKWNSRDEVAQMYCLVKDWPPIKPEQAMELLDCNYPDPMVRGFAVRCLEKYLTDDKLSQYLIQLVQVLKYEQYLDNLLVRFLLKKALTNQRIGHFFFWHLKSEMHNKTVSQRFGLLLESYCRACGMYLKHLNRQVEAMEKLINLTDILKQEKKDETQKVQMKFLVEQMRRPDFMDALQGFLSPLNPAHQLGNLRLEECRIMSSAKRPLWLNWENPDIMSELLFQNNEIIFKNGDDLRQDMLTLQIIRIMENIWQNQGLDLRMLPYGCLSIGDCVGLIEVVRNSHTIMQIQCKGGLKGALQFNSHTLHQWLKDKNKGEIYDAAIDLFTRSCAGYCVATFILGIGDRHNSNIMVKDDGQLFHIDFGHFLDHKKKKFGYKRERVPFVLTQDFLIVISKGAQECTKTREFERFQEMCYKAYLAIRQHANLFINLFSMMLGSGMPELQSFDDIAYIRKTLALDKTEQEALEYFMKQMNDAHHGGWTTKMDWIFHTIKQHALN

[5] = Binding affinity to AMPK (unknown origin) assessed as inhibition constant; design: species or system Homo sapiens
[6] = biological target: Phosphatidylinositol 4,5-bisphosphate 3-kinase catalytic subunit gamma isoform (Homo sapiens, UniProt P48736); test: Inhibition of PI3K p120gamma (unknown origin)
Phosphatidylinositol 4,5-bisphosphate 3-kinase catalytic subunit gamma isoform, sequence (P48736 whole entry, canonical isoform): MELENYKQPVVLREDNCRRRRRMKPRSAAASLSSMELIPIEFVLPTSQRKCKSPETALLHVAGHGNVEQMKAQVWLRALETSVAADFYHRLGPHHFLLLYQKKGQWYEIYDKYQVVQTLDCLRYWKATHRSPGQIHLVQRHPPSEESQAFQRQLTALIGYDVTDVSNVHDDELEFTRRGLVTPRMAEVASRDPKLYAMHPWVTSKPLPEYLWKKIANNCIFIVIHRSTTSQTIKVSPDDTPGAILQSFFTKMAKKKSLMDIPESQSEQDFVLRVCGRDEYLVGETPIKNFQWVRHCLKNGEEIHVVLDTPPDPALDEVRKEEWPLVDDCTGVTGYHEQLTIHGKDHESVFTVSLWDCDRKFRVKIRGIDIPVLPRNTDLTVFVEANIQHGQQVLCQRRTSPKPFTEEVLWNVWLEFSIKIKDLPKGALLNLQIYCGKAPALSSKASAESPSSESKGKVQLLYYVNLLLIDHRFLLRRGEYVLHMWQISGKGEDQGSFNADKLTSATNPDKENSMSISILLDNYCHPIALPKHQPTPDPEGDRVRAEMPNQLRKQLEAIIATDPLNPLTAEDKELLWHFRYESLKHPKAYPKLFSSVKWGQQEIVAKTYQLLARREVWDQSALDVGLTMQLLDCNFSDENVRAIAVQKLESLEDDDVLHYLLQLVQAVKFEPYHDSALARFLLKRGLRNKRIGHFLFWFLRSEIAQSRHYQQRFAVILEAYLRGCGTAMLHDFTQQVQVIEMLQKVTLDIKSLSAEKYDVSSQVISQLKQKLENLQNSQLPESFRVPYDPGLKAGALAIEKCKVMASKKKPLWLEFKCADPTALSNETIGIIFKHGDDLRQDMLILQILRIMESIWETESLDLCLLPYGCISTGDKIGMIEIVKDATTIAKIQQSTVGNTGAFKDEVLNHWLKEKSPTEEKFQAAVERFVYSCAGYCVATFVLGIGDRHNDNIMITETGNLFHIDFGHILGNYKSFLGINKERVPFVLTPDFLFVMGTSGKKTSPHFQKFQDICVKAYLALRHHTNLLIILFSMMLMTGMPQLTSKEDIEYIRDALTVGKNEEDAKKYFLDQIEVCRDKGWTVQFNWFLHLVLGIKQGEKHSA

[7] = biological target: T2, Phosphatidylinositol 4,5-bisphosphate 3-kinase catalytic subunit delta isoform (Homo sapiens, UniProt O00329); test: Inhibition of PI3Kdelta (unknown origin)
T2 sequence (O00329 whole entry): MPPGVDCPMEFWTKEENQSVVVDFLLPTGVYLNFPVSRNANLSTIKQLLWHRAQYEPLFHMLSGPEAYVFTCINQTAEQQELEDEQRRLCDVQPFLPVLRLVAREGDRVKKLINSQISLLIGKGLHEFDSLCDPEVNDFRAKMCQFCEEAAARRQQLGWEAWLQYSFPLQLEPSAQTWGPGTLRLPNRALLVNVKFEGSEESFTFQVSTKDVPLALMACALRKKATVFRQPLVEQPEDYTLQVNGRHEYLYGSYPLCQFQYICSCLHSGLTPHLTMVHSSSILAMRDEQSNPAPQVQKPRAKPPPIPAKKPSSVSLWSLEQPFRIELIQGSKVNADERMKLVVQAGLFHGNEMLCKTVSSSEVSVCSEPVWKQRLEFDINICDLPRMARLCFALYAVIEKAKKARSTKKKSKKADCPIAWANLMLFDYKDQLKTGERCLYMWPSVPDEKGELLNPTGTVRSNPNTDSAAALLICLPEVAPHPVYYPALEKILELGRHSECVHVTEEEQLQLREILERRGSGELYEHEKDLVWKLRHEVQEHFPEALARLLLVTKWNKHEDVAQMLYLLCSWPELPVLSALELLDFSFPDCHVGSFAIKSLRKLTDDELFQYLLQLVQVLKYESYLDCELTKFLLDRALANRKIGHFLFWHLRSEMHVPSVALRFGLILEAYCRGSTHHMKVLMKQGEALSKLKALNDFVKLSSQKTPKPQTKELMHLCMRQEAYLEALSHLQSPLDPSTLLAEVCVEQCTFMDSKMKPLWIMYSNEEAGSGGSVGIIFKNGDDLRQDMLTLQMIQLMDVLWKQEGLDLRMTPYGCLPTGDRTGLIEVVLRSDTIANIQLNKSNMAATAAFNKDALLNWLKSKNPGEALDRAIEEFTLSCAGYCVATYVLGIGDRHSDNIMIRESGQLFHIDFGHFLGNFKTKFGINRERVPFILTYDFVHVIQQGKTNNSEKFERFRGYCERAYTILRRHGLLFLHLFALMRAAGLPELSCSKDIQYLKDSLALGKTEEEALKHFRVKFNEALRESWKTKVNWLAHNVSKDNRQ

[8] = biological target: T3, Serine/threonine-protein kinase ULK1 (Homo sapiens, UniProt O75385); test: Agonist activity at ULK1 (unknown origin)
T3 sequence (O75385 whole entry): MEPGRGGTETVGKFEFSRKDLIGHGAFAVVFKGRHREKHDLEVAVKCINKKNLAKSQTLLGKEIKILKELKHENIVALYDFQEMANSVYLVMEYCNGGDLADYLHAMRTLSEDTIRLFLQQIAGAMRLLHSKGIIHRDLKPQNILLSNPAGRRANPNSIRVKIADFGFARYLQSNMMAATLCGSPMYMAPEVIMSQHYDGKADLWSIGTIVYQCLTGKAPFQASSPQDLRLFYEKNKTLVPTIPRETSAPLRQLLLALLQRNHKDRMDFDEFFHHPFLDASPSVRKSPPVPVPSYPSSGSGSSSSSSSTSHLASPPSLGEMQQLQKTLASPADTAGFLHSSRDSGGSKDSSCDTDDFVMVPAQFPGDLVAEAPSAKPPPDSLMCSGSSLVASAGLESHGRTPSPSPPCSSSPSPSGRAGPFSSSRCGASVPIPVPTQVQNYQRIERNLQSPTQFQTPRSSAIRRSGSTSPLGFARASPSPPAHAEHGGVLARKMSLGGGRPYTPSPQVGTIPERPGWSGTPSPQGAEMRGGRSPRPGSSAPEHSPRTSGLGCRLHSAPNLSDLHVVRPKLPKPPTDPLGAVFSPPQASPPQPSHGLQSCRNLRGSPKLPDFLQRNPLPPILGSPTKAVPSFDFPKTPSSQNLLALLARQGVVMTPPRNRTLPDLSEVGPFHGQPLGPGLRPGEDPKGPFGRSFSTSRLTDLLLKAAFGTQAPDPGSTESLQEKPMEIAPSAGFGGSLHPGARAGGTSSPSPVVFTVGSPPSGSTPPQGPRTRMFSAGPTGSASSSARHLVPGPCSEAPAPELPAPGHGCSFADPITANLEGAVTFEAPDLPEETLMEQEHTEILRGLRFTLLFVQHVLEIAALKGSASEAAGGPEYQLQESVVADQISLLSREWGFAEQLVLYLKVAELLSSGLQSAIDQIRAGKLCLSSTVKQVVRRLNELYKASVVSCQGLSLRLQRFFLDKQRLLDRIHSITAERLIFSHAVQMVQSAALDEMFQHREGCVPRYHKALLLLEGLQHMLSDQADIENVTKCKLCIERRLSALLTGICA

Mitogen-activated protein kinase 3, sequence (P27361 whole entry): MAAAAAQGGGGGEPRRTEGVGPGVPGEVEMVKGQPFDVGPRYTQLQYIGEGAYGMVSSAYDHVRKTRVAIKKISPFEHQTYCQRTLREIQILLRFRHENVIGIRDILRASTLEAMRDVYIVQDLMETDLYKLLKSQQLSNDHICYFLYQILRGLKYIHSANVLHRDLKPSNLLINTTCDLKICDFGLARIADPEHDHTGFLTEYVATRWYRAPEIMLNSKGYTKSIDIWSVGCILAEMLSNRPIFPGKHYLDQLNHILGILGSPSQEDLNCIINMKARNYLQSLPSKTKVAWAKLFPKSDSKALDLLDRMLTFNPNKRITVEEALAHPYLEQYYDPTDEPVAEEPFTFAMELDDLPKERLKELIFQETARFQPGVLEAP

An IC50 [1] of 87 nM was found for `COc1ccc([C@H]2OC[C@H]3[C@@H]2CO[C@@H]3c2cc(OC)c(OC)c(OC)c2)cc1OC` in this work.
An EC50 [2] of 0.8 µM was found for `N#Cc1c(O)c2c(-c3ccc(-c4ccccc4O)cc3)csc2[nH]c1=O` in this work.
An IC50 [3] of 9 nM was found for `CCc1cc(N2CCN(C)CC2)ccc1Nc1ncc(C(F)(F)F)c(NCCCN2CCOCCC2=O)n1` [INLEXISERTIB] in this work.
An IC50 [4] of 1400 nM was found for `CC(C)NC[C@@H](C(=O)N1CCN(c2ncnc3c2[C@H](C)C[C@H]3O)CC1)c1ccc(Cl)cc1` [IPATASERTIB] in this work.
A Ki [5] of 109 nM was found for `c1cc(-c2cnn3cc(-c4ccc(OCCN5CCCCC5)cc4)cnc23)ccn1` [DORSOMORPHIN] in this work.
An IC50 [6] of 0.91 nM was found for `Cc1nc(-c2cn3c(n2)-c2ccc(-c4cnn(C(C)(C)C(N)=O)c4)cc2OCC3)n(C(C)C)n1` [TASELISIB] in this work.
An IC50 [4] of 0.1 nM, an IC50 [7] of 2.9 nM and an IC50 [6] of 1 nM were found for `C=CCN(/C=C1/C(=O)O[C@H](COC)[C@@]2(C)C1=C(O)C(=O)C1=C2[C@H](OC(C)=O)C[C@]2(C)C(=O)CC[C@@H]12)CC=C` [SONOLISIB] in this work.
An EC50 [2] of 38 µM was found for `N#Cc1c(O)c2c(-c3ccccc3)csc2[nH]c1=O` in this work.
An EC50 [8] of 24.1 nM was found for `O=C(Nc1ccc(F)cc1F)[C@H](NC(=S)Nc1cc(C(F)(F)F)cc(C(F)(F)F)c1)c1ccccc1` in this work.
